Data taken from article PMC6001238, “Iterative Chemical Engineering of Vancomycin Leads to Novel Vancomycin Analogs With a High in Vitro Therapeutic Index” (Frontiers in Microbiology, 2018).
In brackets after ≈: the same amount, converted by molar mass. Read-outs that look alike come from different tables or passages of the source.

Tests used:
[1] = tested on: MRSA KS89; test: MIC, broth microdilution, MRSA KS89; format: cell-based, Staphylococcus aureus; conditions: for MIC-fold improvement vs. vancomycin: MRSA KS8, ratio of MIC of vancomycin and MIC of analogue; for MIC: Staphylococcus aureus MRSA KS8, read-out: MIC
In short: (§1)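 Susceptibility was scored by broth microdilution (CLSI). In one instance each vancomycin analog or control antibiotic was tested in the presence of vancomycin, 10 μM final, and ultrapure water plus non-inoculated broth were included as controls.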

[2] = tested on: E. faecalis VRE 6; test: MIC, broth microdilution, vancomycin-resistant E. faecalis VRE 6 (VanA); format: cell-based, Enterococcus faecalis; conditions: for MICvanc/MICi / MIC-fold improvement vs. vancomycin: ratio of MIC of vancomycin and MIC of analogue; for MIC: read-out: MIC; for MIC-fold improvement vs. vancomycin: VRE 6
In short: as §1

[3] = tested on: E. coli XL-1 blue MRF'; test: MIC, broth microdilution, E. coli XL-1 blue MRF'; format: cell-based, Escherichia coli; conditions: E. coli XL-1 blue MRF'; for MICvanc/MICi: ratio of MIC of vancomycin and MIC of analogue
Experimental: (§2) The minimum inhibitory concentration (MIC) was determined using the broth microdilution method according to the antimicrobial susceptibility testing standards of the clinical and laboratory standards institute ([Clinical and Laboratory Standards Institute [CLSI], 2012]). Ultrapure water and non-inoculated broth were used as controls. In one case, a final concentration of 10 μM vancomycin was included with the vancomycin analog or control antibiotic.

[4] = tested on: E. faecalis VRE 53; test: MIC, broth microdilution, vancomycin-resistant E. faecalis VRE 53 (VanA); format: cell-based, Enterococcus faecalis; conditions: for MICvanc/MICi / MIC-fold improvement vs. vancomycin: ratio of MIC of vancomycin and MIC of analogue; for MIC: read-out: MIC; for MIC-fold improvement vs. vancomycin: VRE 53
In short: as §1

[5] = tested on: S. aureus VSSA (ATCC 6538); test: MIC, broth microdilution, vancomycin-sensitive S. aureus (VSSA/MSSA, ATCC 6538); format: cell-based, Staphylococcus aureus; conditions: for MIC: Staphylococcus aureus VSSA, read-out: MIC; for MIC-fold improvement vs. vancomycin: VSSA, ratio of MIC of vancomycin and MIC of analogue
In short: as §1

[6] = tested on: MRSA KS2; test: MIC, broth microdilution, MRSA KS2; format: cell-based, Staphylococcus aureus; conditions: for MIC-fold improvement vs. vancomycin: MRSA KS2, ratio of MIC of vancomycin and MIC of analogue; for MIC: Staphylococcus aureus MRSA KS2, read-out: MIC
In short: as §1

[7] = tested on: Murine leukemia (L1210) cells; test: Cytostatic activity, L1210 cell proliferation; format: cell-based; conditions: mean ± SD of three experiments; highest concentration tested 250 µM; 2 days; read-out: Toxicity (IC50) L1210
In short: (§3)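 Suspensions (300,000–500,000 cells/mL) combined with equal volumes of diluted compound; 37°C; L1210 2 d / CEM 3 d / HeLa 4 d; counted by Coulter counter; IC50 vs untreated wells.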

[8] = tested on: S. aureus VRSA; test: MIC, broth microdilution, vancomycin-resistant S. aureus (VRSA); format: cell-based, Staphylococcus aureus; conditions: for MIC: Staphylococcus aureus VRSA, read-out: MIC; for MIC-fold improvement vs. vancomycin: VRSA, ratio of MIC of vancomycin and MIC of analogue
In short: as §1

[9] = tested on: B. subtilis PSB3; test: MIC, broth microdilution, B. subtilis PSB3; format: cell-based, Bacillus subtilis; conditions: for MICvanc/MICi: ratio of MIC of vancomycin and MIC of analogue
Experimental: as §2

[10] = tested on: E. faecalis VRE 37; test: MIC, broth microdilution, vancomycin-resistant E. faecalis VRE 37 (VanA); format: cell-based, Enterococcus faecalis; conditions: for MIC: Enterococcus faecalis VRE 37 (vancomycin-resistant), read-out: MIC; for MIC-fold improvement vs. vancomycin: VRE 37, ratio of MIC of vancomycin and MIC of analogue
In short: as §1

[11] = tested on: human cervix carcinoma (HeLa) cells; test: Cytostatic activity, HeLa cell proliferation; format: cell-based; conditions: mean ± SD of three experiments; highest concentration tested 250 µM; 4 days; read-out: Toxicity (IC50) HeLa
In short: as §3

[12] = tested on: S. aureus VISA/HIP5827; test: MIC, broth microdilution, vancomycin-intermediate S. aureus VISA HIP5827; format: cell-based, Staphylococcus aureus; conditions: for MIC: Staphylococcus aureus VISA/HIP5827, read-out: MIC; for MIC-fold improvement vs. vancomycin: VISA/HIP5827, ratio of MIC of vancomycin and MIC of analogue
In short: as §1

[13] = tested on: L1210, CEM and HeLa cell lines; test: Cytostatic activity, average or summary over L1210, CEM and HeLa; format: cell-based
In short: as §3

[14] = tested on: human T-lymphocyte (CEM) cells; test: Cytostatic activity, CEM cell proliferation; format: cell-based; conditions: mean ± SD of three experiments; highest concentration tested 250 µM; 3 days; read-out: Toxicity (IC50) CEM
In short: as §3

[15] = tested on: E. faecalis VSE 1; test: MIC, broth microdilution, vancomycin-sensitive E. faecalis (VSE 1); format: cell-based, Enterococcus faecalis; conditions: for MICvanc/MICi / MIC-fold improvement vs. vancomycin: ratio of MIC of vancomycin and MIC of analogue; for MIC: read-out: MIC; for MIC-fold improvement vs. vancomycin: VSE 1
In short: as §1

[16] = tested on: MRSA KS6; test: MIC, broth microdilution, MRSA KS6; format: cell-based, Staphylococcus aureus; conditions: for MIC-fold improvement vs. vancomycin: MRSA KS6, ratio of MIC of vancomycin and MIC of analogue; for MIC: Staphylococcus aureus MRSA KS6, read-out: MIC
In short: as §1

[17] = tested on: E. faecalis VRE 29; test: MIC, broth microdilution, vancomycin-resistant E. faecalis VRE 29 (VanA); format: cell-based, Enterococcus faecalis; conditions: for MIC: Enterococcus faecalis VRE 29 (vancomycin-resistant), read-out: MIC; for MIC-fold improvement vs. vancomycin: VRE 29, ratio of MIC of vancomycin and MIC of analogue
In short: as §1

[18] = tested on: MRSA KS1; test: MIC, broth microdilution, MRSA KS1; format: cell-based, Staphylococcus aureus; conditions: for MIC-fold improvement vs. vancomycin: MRSA KS1, ratio of MIC of vancomycin and MIC of analogue; for MIC: Staphylococcus aureus MRSA KS1, read-out: MIC
In short: as §1

[19] = Enterococcus faecalis VRE 6 (vancomycin-resistant)
[20] = Enterococcus faecalis VRE 53 (vancomycin-resistant)
[21] = average of L1210, CEM and HeLa, read-out: Toxicity (IC50) Average
[22] = Enterococcus faecalis VSE 1 (vancomycin-sensitive)

Row | SMILES | MIC-fold improvement vs. vancomycin [1] | MIC [1] | MICvanc/MICi ([2]; E. faecalis VRE 6) | MIC ([2]; E. faecalis VRE 6) | MIC [2, 19] | MIC [3] | MICvanc/MICi [3] | MICvanc/MICi ([4]; E. faecalis VRE 53) | MIC ([4]; E. faecalis VRE 53) | MIC [4, 20] | MIC-fold improvement vs. vancomycin [4] | MIC [5] | MIC-fold improvement vs. vancomycin [5] | MIC-fold improvement vs. vancomycin [6] | MIC [6] | IC50 [7] | MIC [8] | MIC-fold improvement vs. vancomycin [8] | MIC [9] | MICvanc/MICi [9] | also measured
1 | C#Cc1ccc(/C=C/C(=O)NCCNC(=O)[C@H]2NC(=O)[C@H]3NC(=O)[C@H](NC(=O)[C@@H]4NC(=O)[C@H](CC(N)=O)NC(=O)[C@H](NC(=O)[C@@H](CC(C)C)NC)[C@H](O)c5ccc(c(Cl)c5)Oc5cc4cc(c5O[C@@H]4O[C@H](CO)[C@@H](O)[C@H](O)[C@H]4O[C@H]4C[C@](C)(N)[C@H](O)[C@H](C)O4)Oc4ccc(cc4Cl)[C@H]3O)c3ccc(O)c(c3)-c3c(O)cc(O)cc32)cc1 [Vanc-Q] | 1 | 0.78 µM (≈ 1.28 µg/mL) | 32 | 6.25 µM (≈ 10.3 µg/mL) | 6.25 µM (≈ 10.3 µg/mL) | 12.5 µM (≈ 20.6 µg/mL) | 8 | 64 | 6.25 µM (≈ 10.3 µg/mL) | 6.25 µM (≈ 10.3 µg/mL) | 64 | 0.20 µM (≈ 0.329 µg/mL) | 4 | 0.5 | 1.56 µM (≈ 2.57 µg/mL) | > 250 µM | 12.5 µM (≈ 20.6 µg/mL) | 8 | 0.39 µM (≈ 0.642 µg/mL) | 1 | MIC-fold improvement vs. vancomycin [2]: 32; MIC [10]: 50 µM (≈ 82.3 µg/mL); MIC-fold improvement vs. vancomycin [10]: 16; IC50 [11]: > 250 µM; MIC [12]: 1.56 µM (≈ 2.57 µg/mL); MIC-fold improvement vs. vancomycin [12]: 4; IC50 [13, 21]: > 250 µM; IC50 ([13]; summary over the three cell lines, read-out: IC50 (L1210, CEM, HeLa), depending on the cell line used): > 250 µM; IC50 [14]: > 250 µM; MICvanc/MICi ([15]; E. faecalis VSE 1): 16; MIC ([15]; E. faecalis VSE 1): 0.10 µM (≈ 0.165 µg/mL); MIC [15, 22]: 0.10 µM (≈ 0.165 µg/mL); MIC-fold improvement vs. vancomycin [15]: 16; MIC-fold improvement vs. vancomycin [16]: 1; MIC [16]: 0.78 µM (≈ 1.28 µg/mL); MIC [17]: 25 µM (≈ 41.1 µg/mL); MIC-fold improvement vs. vancomycin [17]: 16; MIC-fold improvement vs. vancomycin [18]: 2; MIC [18]: 0.39 µM (≈ 0.642 µg/mL)
2 | C#Cc1ccc(C=Cc2ccc(NC(=O)CNC(=O)C3NC(=O)C4NC(=O)C(NC(=O)C5NC(=O)C(CC(N)=O)NC(=O)C(NC(=O)C(CC(C)C)NC)C(O)c6ccc(c(Cl)c6)Oc6cc5cc(c6OC5OC(CO)C(O)C(O)C5OC5CC(C)(N)C(O)C(C)O5)Oc5ccc(cc5Cl)C4O)c4ccc(O)c(c4)-c4c(O)cc(O)cc43)cc2)cc1 (centres unmarked) [Vanc-R] | 2 | 0.39 µM (≈ 0.666 µg/mL) | 64 | 3.13 µM (≈ 5.34 µg/mL) | 3.13 µM (≈ 5.34 µg/mL) | 100 µM (≈ 171 µg/mL) | 1 | 64 | 6.25 µM (≈ 10.7 µg/mL) | 6.25 µM (≈ 10.7 µg/mL) | 64 | 0.10 µM (≈ 0.171 µg/mL) | 8 | 2 | 0.39 µM (≈ 0.666 µg/mL) | 5.7 ± 0.7 µM | 1.56 µM (≈ 2.66 µg/mL) | 64 | 0.78 µM (≈ 1.33 µg/mL) | 0.5 | MIC [10]: 12.5 µM (≈ 21.3 µg/mL); MIC-fold improvement vs. vancomycin [10]: 64; IC50 [11]: 15 ± 1 µM; MIC [12]: 0.78 µM (≈ 1.33 µg/mL); MIC-fold improvement vs. vancomycin [12]: 8; IC50 [13, 21]: 7 µM; IC50 [14]: 1.4 ± 0.6 µM; MICvanc/MICi ([15]; E. faecalis VSE 1): 8; MIC ([15]; E. faecalis VSE 1): 0.20 µM (≈ 0.342 µg/mL); MIC [15, 22]: 0.19 µM (≈ 0.324 µg/mL); MIC-fold improvement vs. vancomycin [15]: 8; MIC-fold improvement vs. vancomycin [16]: 2; MIC [16]: 0.39 µM (≈ 0.666 µg/mL); MIC [17]: 1.56 µM (≈ 2.66 µg/mL); MIC-fold improvement vs. vancomycin [17]: 256; MIC-fold improvement vs. vancomycin [18]: 1; MIC [18]: 0.78 µM (≈ 1.33 µg/mL)
3 | C#Cc1ccc(-c2ccc(C(=O)NCCCNC(=O)[C@H]3NC(=O)[C@H]4NC(=O)[C@H](NC(=O)[C@@H]5NC(=O)[C@H](CC(N)=O)NC(=O)[C@H](NC(=O)[C@@H](CC(C)C)NC)[C@H](O)c6ccc(c(Cl)c6)Oc6cc5cc(c6O[C@@H]5O[C@H](CO)[C@@H](O)[C@H](O)[C@H]5O[C@H]5C[C@](C)(N)[C@H](O)[C@H](C)O5)Oc5ccc(cc5Cl)[C@H]4O)c4ccc(O)c(c4)-c4c(O)cc(O)cc43)cc2)cc1 [Vanc-S] | 4 | 0.20 µM (≈ 0.342 µg/mL) | 256 | 0.78 µM (≈ 1.33 µg/mL) | 0.78 µM (≈ 1.33 µg/mL) | 50 µM (≈ 85.5 µg/mL) | 2 | 128 | 3.13 µM (≈ 5.35 µg/mL) | 3.13 µM (≈ 5.35 µg/mL) | 128 | 0.10 µM (≈ 0.171 µg/mL) | 8 | 4 | 0.20 µM (≈ 0.342 µg/mL) | 10 ± 4 µM | 0.78 µM (≈ 1.33 µg/mL) | 128 | 0.20 µM (≈ 0.342 µg/mL) | 2 | MIC-fold improvement vs. vancomycin [2]: 256; MIC [10]: 25 µM (≈ 42.7 µg/mL); IC50 [11]: 70 ± 8 µM; MIC [12]: 0.39 µM (≈ 0.667 µg/mL); MIC-fold improvement vs. vancomycin [12]: 16; IC50 [13, 21]: 29 µM; IC50 [14]: 5.6 ± 1.1 µM; MICvanc/MICi ([15]; E. faecalis VSE 1): 64; MIC ([15]; E. faecalis VSE 1): 0.03 µM (≈ 0.0513 µg/mL); MIC [15, 22]: 0.03 µM (≈ 0.0513 µg/mL); MIC-fold improvement vs. vancomycin [15]: 64; MIC-fold improvement vs. vancomycin [16]: 2; MIC [16]: 0.39 µM (≈ 0.667 µg/mL); MIC [17]: 6.25 µM (≈ 10.7 µg/mL); MIC-fold improvement vs. vancomycin [17]: 64; MIC-fold improvement vs. vancomycin [18]: >8; MIC [18]: <0.10 µM
